The text below walks through data of ChEMBL document CHEMBL5252610, “Synthesis, Characterization, and Bioactivity of the Lichen Pigments Pulvinamide, Rhizocarpic Acid, and Epanorin and Congeners” (J Nat Prod, 2023).

The structures appear in SMILES notation. ≈ marks a conversion by molar mass, not a printed value.

The nature of data set [1]: Anticancer activity against mouse NS-1 cells assessed as reduction in cell viability incubated for 96 hrs by resazurin based assay. It counts as functional.
Data set [2] deals with Saccharomyces cerevisiae. Briefly: Antifungal activity against Saccharomyces cerevisiae ATCC 9763 assessed as bacterial growth inhibition incubated for 48 hrs by bromocresol green based broth dilution assay. It counts as functional. (Broth dilution looks for growth in wells or tubes with falling amounts of substance.)
The subject of data set [3] is Staphylococcus aureus. Briefly: Antibacterial activity against Staphylococcus aureus ATCC 25923 assessed as bacterial growth inhibition incubated for 48 hrs by resazurin microtiter assay. It counts as functional. On the technique in general: Resazurin is reduced to fluorescent resorufin, in cell work by metabolically active cells.
In data set [4] the test system is Candida albicans. Description: Antifungal activity against Candida albicans ATCC 10231 assessed as bacterial growth inhibition incubated for 48 hrs by bromocresol green based broth dilution assay. It counts as functional.
Data set [5] relates to Bacillus subtilis. Description: Antibacterial activity against Bacillus subtilis ATCC 6633 assessed as bacterial growth inhibition incubated for 48 hrs by resazurin microtiter assay. It counts as functional.
Data set [6] deals with Giardia intestinalis. Description: Antiparasitic activity against Giardia intestinalis 713 assessed as bacterial growth inhibition incubated for 96 hrs by microtiter assay. It counts as functional. The following applies: Giardia duodenalis.
Data set [7] is described as follows: Cytotoxicity against human NFF cells assessed as reduction in cell viability incubated for 96 hrs by resazurin based assay. It counts as toxicity. The following applies: read-out: MIC.
Data set [8] has as its system Spodoptera littoralis. Briefly: Insecticidal activity against Spodoptera littoralis neonate larvae assessed as reduction in weight gain of larvae. It counts as functional.
Data set [9] relates to Spodoptera littoralis. Description: Insecticidal activity against Spodoptera littoralis assessed as reduction in number of pupae in adulthood (Rvb=90%). It counts as functional. More on the design: scale not given: the % may be the effect or the level left.

Take `CC(C)C[C@H](NC(=O)/C(=C1/OC(=O)C(c2ccccc2)=C1O)c1ccccc1)C(=O)O`: the MIC in data set [1] was above 100 µg/mL; in [2], above 200 µg/mL; in data set [3] it was above 100 µg/mL; in data set [4], above 200 µg/mL; in data set [5], above 100 µg/mL; in [6], above 100 µg/mL. In addition, in [7], the MCC at 96 h was above 100 µg/mL.

Take `O=C1OC2=C(c3ccccc3)C(=O)OC2=C1c1ccccc1` [PULVINIC DILACTONE]: the MIC in data set [2], in [3], in data set [4] and in [5] was above 100 µg/mL in each case.

As to `CSC[S+]([O-])C[C@H](CO)NC(=O)/C=C/c1c(C)[nH]c(=O)[nH]c1=O` (stereo partly drawn), the MIC in data set [1] came out at 0.6 µg/mL (≈ 1.66 µM). For the same compound, the MCC at 96 h in data set [7] was 0.6 µg/mL.

As for `COC(=O)[C@@H](Cc1ccccc1)NC(=O)/C(=C1/OC(=O)C(c2ccccc2)=C1O)c1ccccc1`, the MIC in data set [1] is 50 µg/mL (≈ 106 µM); in data set [2], above 200 µg/mL; in [3] it was 50 µg/mL (≈ 106 µM); in data set [4], above 200 µg/mL; in [5] it was 50 µg/mL (≈ 106 µM); in [6], 25 µg/mL (≈ 53.2 µM). Moreover, the MCC at 96 h in [7] was above 100 µg/mL.

In the case of `CN(C)[C@@H]1C(O)=C(C(N)=O)C(=O)[C@@]2(O)C(O)=C3C(=O)c4c(O)cccc4[C@@](C)(O)[C@H]3C[C@@H]12` [TETRACYCLINE], the MIC in data set [3] was determined as 12.5 µg/mL (≈ 28.1 µM); in data set [5], 6.3 µg/mL (≈ 14.2 µM).

For `O=C1O/C(=C(/C(=O)N[C@@H](Cc2ccccc2)C(=O)O)c2ccccc2)C(O)=C1c1ccccc1`, the MIC in data set [1] was above 100 µg/mL; in [2], above 200 µg/mL; in data set [3], above 100 µg/mL; in data set [4], above 200 µg/mL; in data set [5], 100 µg/mL (≈ 220 µM); in data set [6], above 100 µg/mL. In addition, in data set [7], the MCC at 96 h is above 100 µg/mL.

For `NC(=O)/C(=C1/OC(=O)C(c2ccccc2)=C1O)c1ccccc1`, the MIC was 100 µg/mL (≈ 325 µM) in [2], above 100 µg/mL in data set [3], 200 µg/mL (≈ 651 µM) in [4] and 50 µg/mL (≈ 163 µM) in [5].

In the case of `COC(=O)[C@H](Cc1ccccc1)NC(=O)/C(=C1/OC(=O)C(c2ccccc2)=C1O)c1ccccc1`, the ED50 in data set [8] turned out to be 71 µmol/g. In addition, the MIC is 3.1 µg/mL (≈ 6.6 µM) in [1]; above 200 µg/mL in [2]; above 100 µg/mL in data set [3]; above 200 µg/mL in data set [4]; 50 µg/mL (≈ 106 µM) in data set [5]; 100 µg/mL (≈ 213 µM) in data set [6]. For the same compound, the Activity in [9] is recorded as 25%. Also, the MCC at 96 h in data set [7] was above 100 µg/mL.

Regarding `CN(CC[C@H](N)CC(=O)N[C@H]1C=C[C@H](n2ccc(N)nc2=O)O[C@@H]1C(=O)O)C(=N)N.Cl`, the MIC in data set [2] was 3.1 µg/mL; in [4], above 200 µg/mL.

Take `COC(=O)[C@@H](CC(C)C)NC(=O)/C(=C1/OC(=O)C(c2ccccc2)=C1O)c1ccccc1`: the MIC in data set [1] was 50 µg/mL (≈ 115 µM); in data set [2], above 200 µg/mL; in data set [3], 100 µg/mL (≈ 230 µM); in [4], above 200 µg/mL; in data set [5], 50 µg/mL (≈ 115 µM); in [6], 25 µg/mL (≈ 57.4 µM). The MCC at 96 h in data set [7] was above 100 µg/mL.

For `O=C1O/C(=C(/C(=O)O)c2ccccc2)C(O)=C1c1ccccc1` [PULVIC ACID], the MIC in [2], in [3], in data set [4] and in data set [5] was above 100 µg/mL in each case.

Turning to `Cc1ncc([N+](=O)[O-])n1CCO` [METRONIDAZOLE], in [6], the MIC is 0.3 µg/mL (≈ 1.75 µM).

In the case of `COC(=O)[C@H](CC(C)C)NC(=O)/C(=C1/OC(=O)C(c2ccccc2)=C1O)c1ccccc1`, the MIC in data set [1] was 25 µg/mL (≈ 57.4 µM); in [2] it was above 200 µg/mL; in data set [3], above 100 µg/mL; in data set [4], above 200 µg/mL; in [5], above 100 µg/mL; in data set [6], 50 µg/mL (≈ 115 µM). The MCC at 96 h in [7] was above 100 µg/mL.
